Literature values in PMC4346355 (Journal of computer-aided molecular design, 2014).
Where two headings read alike, the source gives them in different places. One block for each compound: values may come before it.

Assays:
[1] = target: HIV integrase catalytic core domain core4H (additional Y131D mutation); details: read-out: SPR KD (core4H)
[2] = target: interaction of LEDGF with integrase
[3] = system: HIV-1 infection of MT-4 cells; details: read-out: EC50 HIV-1 infection of MT-4 cells
[4] = target: strand transfer activity of HIV integrase
[5] = system: HIV-1 infection of PBMC cells; details: read-out: EC50 HIV-1 infection of PBMC cells
[6] = target: LEDGF-integrase interaction; details: assay not named

Compound: CC[C@H](C)NC(=O)c1ccccc1CN(C)Cc1ccc2c(c1C(=O)O)OCO2 [Compound 3ZSZ]
Kd [1]: > 2000 µM

Compound: C=CCN(Cc1ccccc1C(=O)NCc1ccccc1)Cc1ccc2c(c1C(=O)O)OCO2 [Compound 3ZSX]
Kd [1]: 1060 µM

IC50 ([2]; assay not given, series assayed in AlphaScreen): 1.37 µM | IC50 ([4]; read-out: IC50 inhibition of strand transfer activity): 19.5 µM
Compound: CCCC(C(=O)O)c1c(C)nc2ccc(Cl)cc2c1-c1ccccc1 (centres unmarked) [CX04328]
EC50 [3]: 2.73 µM | EC50 [5]: 3.45 µM

inhibition in AlphaScreen assay for binding at the LEDGF site [2]: 36 µM | inhibition in active site directed strand transfer assay [4]: 0.14 µM
Compound: COc1cccc2c1c(/C(O)=C/C(=O)C(=O)O)cn2Cc1ccc(F)cc1 [CHI-1043]

Compound: CN(Cc1ccccc1C(=O)NCC1CCCCC1)Cc1ccc2c(c1C(=O)O)OCO2 [Compound 3ZSY]
Kd [1]: > 2000 µM

Compound: O=C(NCC1CCCCC1)c1cc(S(=O)(=O)N2CCCCC2)cc(O)c1O [N-(cyclohexylmethyl)-2,3-dihydroxy-5-(piperidin-1-ylsulfonyl) benzamide]
IC50 ([4]; read-out: IC50 strand transfer): 19 µM | IC50 [6]: 8 µM
